The source of these data is patent US6537522B1, “Neuroprobes for mapping monoamine reuptake sites” (Amersham PLC, priority 1992, dated 2003).

One series concerns the target T1, 5-HTT (5-HT transporter) (Rattus norvegicus, UniProt P31652).
T1 construct: or frontoparietal cerebral cortex (for 5-HTT and NET); from tissue; host or cells: rat brain frontoparietal cerebral cortex, crude membrane fraction
Description: 5-HTT assay, [3H]paroxetine binding, rat frontoparietal cerebral cortex membranes. The procedure: (§1) N-phthalimidopropyl-β-CIT (see Example 10) was analyzed as follows. Stock solutions (1 mM) of test agents were made in 95% ethanol/DMSO (1/1, v/v) and stored at −5° C. until used by diluting in a large excess of each assay buffer. Agents are tested at six concentrations in duplicate, with a crude membrane fraction of homogenates of rat brain corpus striatum (for DAT assays) in Tris-citrate buffer (pH 7.4) containing Na^+ ([…]) and Mg^2+ (4 mM) or frontoparietal cerebral cortex (for 5-HTT and NET) in 50 mM Tris-HCl buffer (pH 7.4) containing Na^+ ([…]) and K^+ (5 mM) following methods reported by Neumeyer et al., J. Med. Chem. 37, 1558-1561 (1991), the whole of which is incorporated by reference herein.

Series [1] concerns the target T2, DAT (dopamine transporter) (Rattus norvegicus, UniProt P23977).
T2 construct: a crude membrane fraction of homogenates of rat brain corpus striatum (for DAT assays); from tissue; host or cells: rat brain corpus striatum, crude membrane fraction
Nature of the series: DAT assay, [3H]GBR-12935 binding, rat brain corpus striatum membranes. Conditions: for selectivity: DAT vs 5-HTT / selectivity: DAT vs NET: ratio of Ki values. As to the method: as §1

Series [2] addresses T3, NET (norepinephrine transporter) (Rattus norvegicus, UniProt Q63380).
T3 construct: or frontoparietal cerebral cortex (for 5-HTT and NET); from tissue; host or cells: rat brain frontoparietal cerebral cortex, crude membrane fraction
Nature of the series: NET assay, [3H]nisoxetine binding, rat frontoparietal cerebral cortex membranes. The procedure: as §1

The subject of series [3] is dopamine and serotonin reuptake sites. Conditions: 3 μmol/kg IV at 200 min pi, during 100 min after injection.
Series [4] has the same test system. Nature of the series: SPECT regional brain activity after injection of [123I]-β-CIT (six experiments). The format is in vivo, baboon (Papio anubis). As to the method: The final product was formulated in 6 ml sterile saline containing 5-10% ethanol.
Data were decay-corrected to the time of injection.
The highest activities were found in the striatal region and reached peak levels at 179±9 min (n=6) post injection (p.i.) (FIG. 2). Striatal activity was monitored in two animals for an additional 190 and […] post peak values.

The nature of series [5]: whole body scanning, thyroid uptake (in vivo deiodination). Conditions: indicative of slow in vivo deiodination. The text has this:
The majority of striatal activity was associated with dopamine reuptake sites, and the majority of midbrain activity was associated with serotonin reuptake sites, which is consistent with the densities of these monoamine transporters measured in postmortem primate brains. Brain washout of activity was relatively slow, in part because of the high affinities of β-CIT for the monoamine transporters.

Series [6] has as its system dopamine and serotonin reuptake sites. Nature of the series: SPECT regional brain activity after i.v. [123I]-β-CIT (five experiments). The format is in vivo, baboon (Papio anubis). The source says: Data were decay corrected to time of injection.
Series [7] has the same test system. Conditions: within 60-120 min. As to the method: Six SPECT experiments were performed in four female baboons (10 kg Papio anubis) under isoflurane anesthesia. […] Data were decay-corrected to the time of injection.
The target of a further series is T4, serotonin reuptake sites (Rattus norvegicus, UniProt P31652).
T4 construct: homogenates prepared from rat cortical membranes; from tissue; host or cells: rat cortical membranes
T4 sequence (P31652 whole entry): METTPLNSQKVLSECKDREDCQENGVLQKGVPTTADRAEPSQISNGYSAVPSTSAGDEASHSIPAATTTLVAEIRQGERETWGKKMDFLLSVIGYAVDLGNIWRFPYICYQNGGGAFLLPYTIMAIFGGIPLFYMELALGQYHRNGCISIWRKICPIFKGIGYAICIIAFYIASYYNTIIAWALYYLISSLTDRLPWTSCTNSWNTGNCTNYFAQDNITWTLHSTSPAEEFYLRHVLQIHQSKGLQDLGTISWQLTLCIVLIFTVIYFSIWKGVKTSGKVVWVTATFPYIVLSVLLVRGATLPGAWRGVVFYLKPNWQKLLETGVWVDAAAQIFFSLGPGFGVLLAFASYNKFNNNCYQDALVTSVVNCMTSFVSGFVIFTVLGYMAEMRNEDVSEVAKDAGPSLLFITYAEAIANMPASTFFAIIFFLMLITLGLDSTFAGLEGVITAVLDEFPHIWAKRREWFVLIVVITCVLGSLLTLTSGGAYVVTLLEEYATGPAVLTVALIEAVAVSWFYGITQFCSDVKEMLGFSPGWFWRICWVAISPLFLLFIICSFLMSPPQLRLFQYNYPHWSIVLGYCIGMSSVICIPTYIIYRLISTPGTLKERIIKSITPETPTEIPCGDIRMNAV
Description: displacement of [3H]paroxetine binding in rat cortical membrane homogenates. Conditions: for displacement of [3H]paroxetine Hill slope (nH): mean ± SEM (n).

For another series, the target named is dopamine reuptake sites (Papio anubis, UniProt A0A096MN61). Description: displacement of [3H]CFT binding in primate striatum tissue homogenates. Also noted: species or system baboon. Conditions: mean ± SEM (n). The text has this:
Values represent means±SEM (of n experiments).

Setting [8] is: at time of peak striatal uptake, n=6.
Setting [9] is: 0.4 μmol/kg i.v. at 180 min p.i.

Read-outs that look alike come from different tables or passages of the source.

T1 sequence (P31652 whole entry): as above
Sequence of dopamine reuptake sites (A0A096MN61 1-620): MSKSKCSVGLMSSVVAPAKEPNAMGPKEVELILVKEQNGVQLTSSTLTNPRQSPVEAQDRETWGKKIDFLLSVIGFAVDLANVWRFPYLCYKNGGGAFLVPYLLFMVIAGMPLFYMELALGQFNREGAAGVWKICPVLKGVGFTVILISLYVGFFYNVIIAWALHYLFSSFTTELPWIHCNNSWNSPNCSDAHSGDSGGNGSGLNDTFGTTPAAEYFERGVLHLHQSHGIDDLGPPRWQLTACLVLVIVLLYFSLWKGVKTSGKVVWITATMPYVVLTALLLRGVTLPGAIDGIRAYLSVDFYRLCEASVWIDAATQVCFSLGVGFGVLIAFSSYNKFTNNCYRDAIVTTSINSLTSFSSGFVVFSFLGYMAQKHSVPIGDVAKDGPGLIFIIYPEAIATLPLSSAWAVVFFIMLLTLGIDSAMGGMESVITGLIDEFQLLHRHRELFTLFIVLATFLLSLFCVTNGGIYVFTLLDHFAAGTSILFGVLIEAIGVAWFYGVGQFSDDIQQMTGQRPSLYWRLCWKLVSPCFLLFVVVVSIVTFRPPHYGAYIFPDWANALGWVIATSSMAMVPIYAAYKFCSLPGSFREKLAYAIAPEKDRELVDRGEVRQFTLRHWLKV
T3 sequence (Q63380 1-617): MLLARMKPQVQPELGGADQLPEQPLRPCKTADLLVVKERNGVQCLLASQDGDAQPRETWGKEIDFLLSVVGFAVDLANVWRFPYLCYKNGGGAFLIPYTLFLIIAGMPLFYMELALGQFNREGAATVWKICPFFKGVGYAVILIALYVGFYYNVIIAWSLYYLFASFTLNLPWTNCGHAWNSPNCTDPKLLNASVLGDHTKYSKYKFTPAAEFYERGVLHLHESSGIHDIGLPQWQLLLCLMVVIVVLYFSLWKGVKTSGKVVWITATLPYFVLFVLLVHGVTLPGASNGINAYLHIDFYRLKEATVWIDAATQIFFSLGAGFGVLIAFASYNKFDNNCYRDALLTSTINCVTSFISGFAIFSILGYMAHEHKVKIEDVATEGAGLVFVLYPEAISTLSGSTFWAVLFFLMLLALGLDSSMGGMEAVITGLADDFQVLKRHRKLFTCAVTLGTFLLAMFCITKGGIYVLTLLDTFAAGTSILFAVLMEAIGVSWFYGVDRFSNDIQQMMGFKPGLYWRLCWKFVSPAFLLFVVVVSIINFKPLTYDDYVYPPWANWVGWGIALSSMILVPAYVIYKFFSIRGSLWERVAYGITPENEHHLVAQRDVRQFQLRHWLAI
T2 sequence (P23977 whole entry): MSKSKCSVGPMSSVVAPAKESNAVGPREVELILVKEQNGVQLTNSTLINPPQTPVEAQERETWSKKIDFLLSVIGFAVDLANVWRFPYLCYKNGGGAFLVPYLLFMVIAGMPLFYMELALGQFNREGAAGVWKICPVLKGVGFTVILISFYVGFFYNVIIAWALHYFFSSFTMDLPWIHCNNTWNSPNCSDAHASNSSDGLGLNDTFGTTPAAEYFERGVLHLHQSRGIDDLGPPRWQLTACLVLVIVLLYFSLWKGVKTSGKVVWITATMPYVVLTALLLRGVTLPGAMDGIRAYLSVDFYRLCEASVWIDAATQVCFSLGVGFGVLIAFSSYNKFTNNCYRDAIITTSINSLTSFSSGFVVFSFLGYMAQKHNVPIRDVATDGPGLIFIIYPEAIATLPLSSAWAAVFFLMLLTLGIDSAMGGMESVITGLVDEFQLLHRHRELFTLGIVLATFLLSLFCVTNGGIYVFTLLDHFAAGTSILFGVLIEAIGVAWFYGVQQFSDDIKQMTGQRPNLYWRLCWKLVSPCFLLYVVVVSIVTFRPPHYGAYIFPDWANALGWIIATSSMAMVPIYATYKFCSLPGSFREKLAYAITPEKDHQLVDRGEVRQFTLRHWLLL

With `COC(=O)[C@H]1[C@@H](c2ccc(I)cc2)C[C@@H]2CC[C@H]1N2CCCN1C(=O)c2ccccc2C1=O` [Example 10, N-phthalimidopropyl-β-CIT], the Ki at 5-HTT (5-HT transporter) ([3H]paroxetine 0.2 nM, rat cerebral cortex, 60 min 20° C., read-out: affinity (Ki) 5-HTT) was determined as 0.59 ± 0.07 nM; in series [1] ([3H]GBR-12935 0.4 nM, rat corpus striatum, 45 min 4° C., read-out: affinity (Ki) DAT), 9.1 ± 1.1 nM; in series [2] ([3H]nisoxetine 0.8 nM, rat cerebral cortex, 180 min 4° C., read-out: affinity (Ki) NET), 73.7 ± 11.6 nM. Moreover, the “selectivity: DAT vs 5-HTT” value in [1] is reported as 0.065. Besides, the “selectivity: DAT vs NET” value in series [1] amounted to 8.10.

For the molecule `CNC1CC(c2ccc(Cl)c(Cl)c2)c2ccccc21` (stereo not drawn) [Lu 19-005, indatraline], in series [3], the “decrease of striatal [123I]-β-CIT activity” value was 65%.

For `COC(=O)C1C(c2ccc([123I])cc2)CC2CCC1N2C` (stereo not drawn) [[^123I]-β-CIT, [^123I]-2-β-Carbomethoxy-3-β-(4-iodophenyl)tropane], in series [4] (setting [8]), the “ratio of regional brain activity, cerebellum (striatum 100%)” value is recorded as 10.0±1.5%; the “ratio of regional brain activity, frontal lobe (striatum 100%)” value came to 10.3±1.0%; the “ratio of regional brain activity, hypothalamus (striatum 100%)” value is 38.1±5.2%; the “ratio of regional brain activity, occipital lobe (striatum 100%)” value is listed as 13.5±0.8%. The “ratio of regional brain activity, temporo-parietal lobes (striatum 100%)” value in [4] (setting [8]) turned out to be 14.3±2.0%. Moreover, in [4] (midbrain, n=3), the “washout of midbrain activity t½” value was 4.9 ± 0.983 h. Also, the “time of peak midbrain activity post injection” value in [4] (midbrain, n=6) was determined as 45 ± 16 min. The “striatal activity after peak” value in [4] (one animal, remaining 190 min of the experiment) is recorded as “virtually unchanged”. For the same molecule, in [4] (second animal, exponential fit, r=0.92), the “washout of striatal activity t½” value is on record as 27 h. Besides, the “time of peak striatal activity post injection” value in [4] (striatum, n=6, mean ± S.E.M.) was 179 ± 9 min. In addition, the thyroid uptake entry in [5] is recorded as “low”. Besides, the “striatal to cerebellar ratio” value in [6] (at time of striatal peak) is listed as 9.8±1.6. In series [6] (control animal followed an additional 200 min), the “decrease of striatal activity from striatal peak to end of experiment” value stood at 0%. For the same molecule, the “decrease of striatal activity from striatal peak to end of experiment” value in [6] (control animal followed an additional 260 min) is 12%. Besides, the “time of peak midbrain levels pi” value in series [6] (midbrain, n=5) came to 43 ± 5 min. Moreover, the “time of peak striatal uptake postinjection” value in series [6] (striatal region, mean ± SEM) turned out to be 154 ± 19 min.

On to `COC(=O)[C@H]1[C@@H](c2ccc(F)cc2)C[C@@H]2CC[C@H]1N2C` [compound 2, 2β-carbomethoxy-3β-(4-fluorophenyl)tropane, reference compound], for which the Ki at 5-HTT (5-HT transporter) was found to be 181 ± 21 nM. Moreover, in series [7] (setting [9]), the “displacement of midbrain [123I]-β-CIT levels” value was determined as 72% and the “displacement of striatal [123I]-β-CIT levels” value is recorded as 57%. Besides, in series [7] (2.0 μmol/kg at 298 min p.i.), the “cumulative displacement of midbrain [123I]-β-CIT levels” value is on record as 91% and the “cumulative displacement of striatal [123I]-β-CIT levels” value is 83%. The same molecule showed an inhibitory constant (Ki) in series [2] of 635 ± 110 nM. This molecule also came in with an IC50 on serotonin reuptake sites of 479 ± 59 nM. Further, at serotonin reuptake sites (rat cortical membranes), the “displacement of [3H]paroxetine Hill slope (nH)” value is 1.34 ± 0.22 (3). For the same molecule, the “displacement of [3H]CFT Hill slope (nH)” value at dopamine reuptake sites is on record as 0.75 ± 0.01 (3).

The molecule `COC(=O)[C@H]1[C@@H](c2ccc(I)cc2)C[C@@H]2CC[C@H]1N2C` [compound 3a, 2β-carbomethoxy-3β-(4-iodophenyl)tropane] showed a Ki on 5-HTT (5-HT transporter) of 0.46 ± 0.06 nM. For the same molecule, in [1], the Ki came to 1.4 ± 0.2 nM, the “selectivity: DAT vs 5-HTT” value is given as 0.320 and the “selectivity: DAT vs NET” value is reported as 2.00. This molecule also came in with a Ki in series [2] of 2.8 ± 0.4 nM. This molecule came in with an IC50 at serotonin reuptake sites of 3.78 ± 0.53 nM. In addition, the “displacement of [3H]paroxetine Hill slope (nH)” value on serotonin reuptake sites (rat cortical membranes) is 0.82 ± 0.08 (6). Besides, the “displacement of [3H]CFT Hill slope (nH)” value at dopamine reuptake sites is recorded as 0.79 ± 0.04 (3).

On to `COC(=O)C1C(c2ccc(I)cc2)CC2CCC1N2C` (stereo not drawn) [compound 3b, 2-α-Carbomethoxy-3-β-iodophenyltropane], for which, on serotonin reuptake sites (rat cortical membranes), the “displacement of [3H]paroxetine Hill slope (nH)” value is given as 0.73 ± 0.04 (2). For the same molecule, on serotonin reuptake sites (rat cortical membranes, mean ± SEM, read-out: displacement of [3H]paroxetine IC50), the IC50 turned out to be 210 ± 86 nM. Also, at dopamine reuptake sites, the “displacement of [3H]CFT Hill slope (nH)” value was 0.70 ± 0.07 (2).
